# From article PMC5357639 (Frontiers in Chemistry, 2017)
# Several values for one entry are separate records, joined by “and”; a condition that tells them apart may be missing. Equal values may be shown once. Where a SMILES comes first, the peptide text is derived from it. The star is where a group is joined. Orn(α-tetramethylguanidino) = CN(C)C(=N[C@@H](CCCN)C(=O)*)N(C)C
# Assays:
# E. coli ATCC 25922 = conditions: E. coli ATCC 25922; ref Czihal et al., 2012; Berthold et al., 2013; cited from earlier work
# Description: Antimicrobial peptides (AMPs) are considered as promising alternatives to common antibiotics that threateningly lose their therapeutic potentials against multidrug-resistant pathogens (Fox, [2013]; Wang et al., [2015]). In contrast to approved therapeutic peptide hormones, antimicrobial peptides have to be administered at much higher doses, which may amplify general drawbacks of peptide therapeutics. For example, the diabetes peptide drugs exenatide and pramlintide are given at daily doses of 20 μg (Byetta®; ~0.5 μg/kg) and 120 μg (Symlin®; ~1.5 μg/kg; Heine et al., [2005]; Hay et al., [2015]) ... || Apidaecin analogs Api88 and Api137 are similarly active against Gram-negative bacteria with a tendency of higher activity of Api88 against K. pneumoniae (Czihal et al., [2012]; Berthold et al., [2013]). However, Api88 carries a C-terminal amide that is responsible for its very fast proteolytic cleavage in serum, the supernatant obtained after complete coagulation and centrifugation of blood. The in vitro serum stability assay, which is an important in vitro criterion to select therapeutic peptides for systemic applications, yielded very short half-life times of 5 min for Api88, which indicate ...
# in vivo = assay: in vivo; set-up: species or system NMRI mice; conditions: mouse, ip; for C0: c0 (initial concentration at time point 0 min)
# Description: (§1) A protocol to quantify Api88, Api137, and their major metabolites was established analog to that of oncocin derivatives, reported recently (Schmidt et al., [2016]). Briefly, an Alliance® 2695 HPLC system was coupled online to an ESI-QqLIT-MS (4,000 QTRAP®) equipped with a TurboV™ ion-spray source and operated in positive ion MRM mode using the Analyst® 1.6 software. Separation was achieved on a Jupiter C18-column (internal diameter 1 mm, length 150 mm, particle size 5 μm, pore size 300 Å) at 55 °C using a linear 5-min gradient from 2.7 to 20.7% aqueous acetonitrile containing ammonium formate (26 mmol/L, pH 3.0). Further details about instrumentation, MRM optimization, and MS settings are provided as Supplementary Material (Tables S1–S4, Method M1).
# (§2) Female NMRI mice (8–9 weeks, 25–35 g) were injected intraperitoneally (10 mL/kg) with peptides dissolved in sterile PBS (Gibco® Life Technologies™, Darmstadt, Germany) at concentrations of 0.5 or 2 g/L corresponding to doses of 5 or 20 mg/kg body weight, respectively. After 10, 20, 30, 60, or 90 min animals (n = 7) were euthanized by carbon dioxide inhalation and terminal bleeding via cardiac puncture. Lithium-heparin plasma (n = 7) was prepared and stored at −80°C. Immediately after the final bleed, mice were perfused through the left ventricle with saline (0.9%, 50 mL, ~3 min) to remove blood from all organs controlled by discoloration of the liver. Organs were removed aseptically and directly frozen in liquid nitrogen. Spontaneously released urine was collected and frozen immediately at −80°C.
# (§3) Method M1: M ultiple reaction monitoring (MRM) transitions for apidaecin peptides Peptides (1 µ g/ m L ) were dissolved inaqueous acetonitrile (25% or 60% v/ v) containing either formate buffer (26 mmol/ L, pH 2.6, 3.0, 3.3 or 3.9 ) or formic acid (0.1% v/v ) and infused (flow rate 5 µ L/min, PHD 2600 s yringe pump) into the ES I-Q q L IT -MS (4000 QTRAP®) to optimize buffer composition and MRM. Transitions were selected from the tandem mass spectra (MS/MS) and confirmed on an ESI-QqTOF-MS (QSTAR® pulsar I) providing higher mass resolutions and mass accuracies than the QTRAP ®. The settings for declustering potential (DP), collision potential (CE), and collision cell exit potential (CXP) were optimized by ramping the respective pot entials using the compound optimization tool of the Anal yst® software.
# (§4) Method M2: Sample preparation
# (§5) Frozen organs (5 per group) wer e homogenized in sterile PBS (500 µ L) containing Protease Inhibitor Mix M (1% v/v; SERVA Electrophoresis GmbH, Heidelberg, German y) using an Ultra-Turr ax ® T25 basic (IKA-Werke, Staufen, German y, rotational speed 21,500 min-1) for 1 min. Homogenates were sonicated on ice (35% amplitude, mode: 5 s on; 5 s off for 1 min; Vibra-cell™ 75041, Thermo Fisher Scientific) to disrupt cells. After centrifugation (15 min, 21,460 x g, 4°C) the supernatants were stored at - 80°C.
# (§6) Aliquots of plasma (10 µL) or liver (10 µ L), kidney (50 µ L), and brain hom ogenates (100 µ L) were spiked with isotope -labeled Api88, Api137, Api1- 16, and Api1- 17 (2.5 µ g/ m L). The samples were diluted fourfold with aqueous phosphoric acid (3.4% v/v), loaded on an Oasis H LB 9 6 -well solid phase extraction (SPE) plate (5 mg sorbent, Waters ), washed with aqueous methanol (0.3 m L, 5% v/ v), eluted with methanol (0.3 m L), and dried in a vacuum centrifuge (30 °C; SpeedVac, Eppendorf ). The samples were dissolved prior analysis in aqueous acetonitrile (3% v/v) containing formic acid (0.1 % v/v).
# (§7) Stock solutions (1 g/L) of the peptides and their corresponding isotope-labelled internal standards were prepared and diluted in water. Calibration and validation mixtures (10 µL) of unlabeled (0.025, 0.1, 0.5 or 2.5 µg/m L) and isotope-labeled peptides ( 2.5 µ g/ m L ) w ere mix ed with plasma or organ homogenates (10 to 100 µL) obtained from untreated animals fo r […]
# (§8) Limits of detection (LOD) and quantification (LOQ) corresponded to the lowest peptide […]
# [1] = Organ distribution (blood, kidney, liver and brain homogenates, urine) after intraperitoneal administration; format: in vivo, NMRI mice; conditions: for Peptide level in brain homogenates (not detected, less than LOD) / Concentration in urine / Peptide level in brain (not detected, LOD converted to brain weight) / Recovered peptide amount in kidneys of treated animals / Recovery rate in blood relative to the injected peptide amount: mouse, in vivo, ip
# Description: as §1, §2, §3, §4, §5, §6, §7, §8
Compound,MIC (E. coli ATCC 25922),"AUC(0-inf) (in vivo; female, NMRI, 5 mg/kg)","Cmax (in vivo; female, NMRI, 5 mg/kg)","MRT (in vivo; female, NMRI, 5 mg/kg)","clearance (in vivo; female, NMRI, 5 mg/kg)","half-life (in vivo; female, NMRI, 5 mg/kg)","C0 (in vivo; female, NMRI, 5 mg/kg)","AUC(0-inf) (in vivo; female, NMRI, 20 mg/kg)","Cmax (in vivo; female, NMRI, 20 mg/kg)","MRT (in vivo; female, NMRI, 20 mg/kg)","clearance (in vivo; female, NMRI, 20 mg/kg)","half-life (in vivo; female, NMRI, 20 mg/kg)",Time within which peptide is cleared (in vivo),AUMC0 → ∞ (in vivo; 5 mg/kg),Detection in plasma (in vivo; 5 mg/kg),Volume of distribution (in vivo; 5 mg/kg),k (elimination constant) (in vivo; 5 mg/kg),AUMC0 → ∞ (in vivo; 20 mg/kg),Volume of distribution (in vivo; 20 mg/kg),c0 (initial concentration at time point 0 min) (in vivo; 20 mg/kg),further results
CC[C@H](C)[C@H](NC(=O)[C@H](Cc1ccc(O)cc1)NC(=O)[C@@H](NC(=O)[C@@H]1CCCN1C(=O)[C@H](CCCNC(=N)N)NC(=O)[C@H](CC(N)=O)NC(=O)[C@H](CC(N)=O)NC(=O)[C@H](CCCN)N=C(N(C)C)N(C)C)C(C)C)C(=O)N1CCC[C@H]1C(=O)N[C@@H](CCCNC(=N)N)C(=O)N1CCC[C@H]1C(=O)N[C@@H](CCCNC(=N)N)C(=O)N1CCC[C@H]1C(=O)N1CCC[C@H]1C(=O)N[C@@H](Cc1c[nH]cn1)C(=O)N1CCC[C@H]1C(=O)N[C@@H](CCCNC(=N)N)C(=O)N[C@@H](CC(C)C)C(N)=O [Api88] ({Orn(α-tetramethylguanidino)}-NNRPVYIPRPRPPHPRL-NH2),~ 4 μg/mL,355 ng·h/mL,600 ng/mL,30.5 min,6.4 mL/min,17.3 min,1000 ng/mL,1900 ng·h/mL,4100 ng/mL,23.9 min,5.4 mL/min,11.1 min,~ 90 min,650 μg^*min^2*mL^−^1,undetectable,137 mL,0.040 min^−^1,2730 μg^*min^2*mL^−^1,100 mL,6.2 µg/mL,"c0 (initial concentration at time point 0 min) (in vivo; 5 mg/kg): 1 µg/mL; k (elimination constant) (in vivo; 20 mg/kg): 0.062 min^−^1; Peptide level in brain homogenates (not detected, less than LOD) ([1]; female, NMRI): < 43 ng/mL homogenate; Concentration in urine ([1]; female, NMRI, 20 mg/kg): ~ 0.2 μg/mL; Peptide level in brain (not detected, LOD converted to brain weight) [1]: < 89 μg/g brain; Recovered peptide amount in kidneys of treated animals [1]: 1.8 µg/g; Recovery rate in blood relative to the injected peptide amount [1]: below 1%; Concentration in urine ([1]; 5 mg/kg): below LOD"
CC[C@H](C)[C@H](NC(=O)[C@H](Cc1ccc(O)cc1)NC(=O)[C@@H](NC(=O)[C@@H]1CCCN1C(=O)[C@H](CCCNC(=N)N)NC(=O)[C@H](CC(N)=O)NC(=O)[C@H](CC(N)=O)NC(=O)[C@H](CCCN)N=C(N(C)C)N(C)C)C(C)C)C(=O)N1CCC[C@H]1C(=O)N[C@@H](CCCNC(=N)N)C(=O)N1CCC[C@H]1C(=O)N[C@@H](CCCNC(=N)N)C(=O)N1CCC[C@H]1C(=O)N1CCC[C@H]1C(=O)N[C@@H](Cc1c[nH]cn1)C(=O)N1CCC[C@H]1C(=O)N[C@@H](CCCNC(=N)N)C(=O)N[C@@H](CC(C)C)C(=O)O [Api137] ({Orn(α-tetramethylguanidino)}-NNRPVYIPRPRPPHPRL-OH),4 μg/mL and ~ 4 μg/mL,160 ng·h/mL,200 ng/mL,54.9 min,15.1 mL/min,33.8 min,200 ng/mL,1200 ng·h/mL,3600 ng/mL,21 min,8.4 mL/min,16.9 min,~ 90 min,1512 μg^*min^2*mL^−^1,still detected,659 mL,0.020 min^−^1,524 μg^*min^2*mL^−^1,77 mL,7.8 µg/mL,"c0 (initial concentration at time point 0 min) (in vivo; female, NMRI, 5 mg/kg): 0.22 µg/mL; k (elimination constant) (in vivo; 20 mg/kg): 0.041 min^−^1; t1/2 (elimination half life time) (in vivo; 20 mg/kg): 17 min; Kidney concentration estimated from detected peptide amount ([1]; estimating the volume of both kidneys as 0.5 mL): 4.8 µg/mL; Peptide level in brain homogenates (not detected, less than LOD) ([1]; female, NMRI): < 18 ng/mL homogenate; Peptide level in brain (not detected, LOD converted to brain weight) [1]: < 37 μg/g brain; Recovered peptide amount in kidneys of treated animals [1]: 2.4 µg/g; Recovery rate in blood relative to the injected peptide amount [1]: below 1%"
